Measured values published in ChEMBL document CHEMBL5442219.

What was measured:
Conditions in all cases: Compound concentration 10 µM
[1] = biological target: T1, Alpha-1B adrenergic receptor (Homo sapiens) (UniProt P35368)
T1 sequence (whole entry): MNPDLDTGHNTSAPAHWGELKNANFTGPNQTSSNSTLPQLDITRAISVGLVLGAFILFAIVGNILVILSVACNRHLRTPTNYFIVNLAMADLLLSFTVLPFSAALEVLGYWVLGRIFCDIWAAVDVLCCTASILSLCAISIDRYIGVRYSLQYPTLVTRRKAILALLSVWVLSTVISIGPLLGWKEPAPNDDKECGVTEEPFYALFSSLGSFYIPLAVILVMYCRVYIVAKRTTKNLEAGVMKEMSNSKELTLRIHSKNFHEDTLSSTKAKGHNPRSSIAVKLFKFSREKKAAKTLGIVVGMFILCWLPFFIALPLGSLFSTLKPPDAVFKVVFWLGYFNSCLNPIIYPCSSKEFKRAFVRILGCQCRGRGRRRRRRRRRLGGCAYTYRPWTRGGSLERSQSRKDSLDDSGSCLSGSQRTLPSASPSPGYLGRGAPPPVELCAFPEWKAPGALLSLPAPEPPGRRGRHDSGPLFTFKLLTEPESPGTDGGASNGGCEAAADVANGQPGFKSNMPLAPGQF
Description: PDSP Primary Binding target: ADRA1B - Compounds are tested at 10 uM concentration, plate are incubated at room temperature in the dark for 90 minutes. Reaction are stopped by vacuum filtration onto 0.3% polyethyleneimine soaked filter mats using Filtermate harvester. Scintilation cocktail is then melted onto microwave-dried filters on a hot plate and the radio activity is counted in Microbia counter.

[2] = biological target: Kappa-type opioid receptor (Homo sapiens) (UniProt P41145)
Description: PDSP Primary Binding target: OPRK1 - Compounds are tested at 10 uM concentration, plate are incubated at room temperature in the dark for 90 minutes. Reaction are stopped by vacuum filtration onto 0.3% polyethyleneimine soaked filter mats using Filtermate harvester. Scintilation cocktail is then melted onto microwave-dried filters on a hot plate and the radio activity is counted in Microbia counter.

[3] = biological target: D(1B) dopamine receptor (Homo sapiens) (UniProt P21918)
Description: PDSP Primary Binding target: DRD5 - Compounds are tested at 10 uM concentration, plate are incubated at room temperature in the dark for 90 minutes. Reaction are stopped by vacuum filtration onto 0.3% polyethyleneimine soaked filter mats using Filtermate harvester. Scintilation cocktail is then melted onto microwave-dried filters on a hot plate and the radio activity is counted in Microbia counter.

[4] = biological target: 5-hydroxytryptamine receptor 6 (Homo sapiens) (UniProt P50406)
Description: PDSP Primary Binding target: HTR6 - Compounds are tested at 10 uM concentration, plate are incubated at room temperature in the dark for 90 minutes. Reaction are stopped by vacuum filtration onto 0.3% polyethyleneimine soaked filter mats using Filtermate harvester. Scintilation cocktail is then melted onto microwave-dried filters on a hot plate and the radio activity is counted in Microbia counter.

[5] = biological target: T2, Muscarinic acetylcholine receptor M2 (Homo sapiens) (UniProt P08172)
T2 sequence (whole entry): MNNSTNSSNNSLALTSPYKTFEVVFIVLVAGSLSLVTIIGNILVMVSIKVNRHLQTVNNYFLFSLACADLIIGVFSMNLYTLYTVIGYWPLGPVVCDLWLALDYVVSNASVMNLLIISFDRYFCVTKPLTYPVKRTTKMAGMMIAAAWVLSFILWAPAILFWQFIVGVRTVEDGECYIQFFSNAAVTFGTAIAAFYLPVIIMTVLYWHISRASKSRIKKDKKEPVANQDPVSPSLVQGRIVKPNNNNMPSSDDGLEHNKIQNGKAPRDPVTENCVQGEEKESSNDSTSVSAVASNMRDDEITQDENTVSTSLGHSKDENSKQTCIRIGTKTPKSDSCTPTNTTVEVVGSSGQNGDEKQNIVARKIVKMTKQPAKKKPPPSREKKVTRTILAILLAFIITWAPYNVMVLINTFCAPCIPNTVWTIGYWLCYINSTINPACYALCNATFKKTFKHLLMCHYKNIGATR
Description: PDSP Primary Binding target: CHRM2 - Compounds are tested at 10 uM concentration, plate are incubated at room temperature in the dark for 90 minutes. Reaction are stopped by vacuum filtration onto 0.3% polyethyleneimine soaked filter mats using Filtermate harvester. Scintilation cocktail is then melted onto microwave-dried filters on a hot plate and the radio activity is counted in Microbia counter.

[6] = biological target: Histamine H2 receptor (Homo sapiens) (UniProt P25021)
Description: PDSP Primary Binding target: HRH2 - Compounds are tested at 10 uM concentration, plate are incubated at room temperature in the dark for 90 minutes. Reaction are stopped by vacuum filtration onto 0.3% polyethyleneimine soaked filter mats using Filtermate harvester. Scintilation cocktail is then melted onto microwave-dried filters on a hot plate and the radio activity is counted in Microbia counter.

[7] = biological target: Beta-3 adrenergic receptor (Homo sapiens) (UniProt P13945)
Description: PDSP Primary Binding target: ADRB3 - Compounds are tested at 10 uM concentration, plate are incubated at room temperature in the dark for 90 minutes. Reaction are stopped by vacuum filtration onto 0.3% polyethyleneimine soaked filter mats using Filtermate harvester. Scintilation cocktail is then melted onto microwave-dried filters on a hot plate and the radio activity is counted in Microbia counter.

[8] = biological target: T3, Alpha-2A adrenergic receptor (Homo sapiens) (UniProt P08913)
T3 sequence (whole entry): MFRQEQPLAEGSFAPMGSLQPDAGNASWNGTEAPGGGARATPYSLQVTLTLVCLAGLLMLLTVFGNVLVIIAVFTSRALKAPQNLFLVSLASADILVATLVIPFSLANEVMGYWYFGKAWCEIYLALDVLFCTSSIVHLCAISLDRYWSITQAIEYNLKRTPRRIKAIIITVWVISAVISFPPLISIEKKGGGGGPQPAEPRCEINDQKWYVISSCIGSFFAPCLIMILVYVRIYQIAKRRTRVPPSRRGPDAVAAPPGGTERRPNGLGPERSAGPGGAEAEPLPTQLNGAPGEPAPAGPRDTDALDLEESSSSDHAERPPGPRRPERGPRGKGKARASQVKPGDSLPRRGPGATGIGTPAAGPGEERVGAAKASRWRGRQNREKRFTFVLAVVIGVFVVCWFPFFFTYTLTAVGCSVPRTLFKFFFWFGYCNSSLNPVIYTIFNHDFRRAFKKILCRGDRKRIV
Description: PDSP Primary Binding target: ADRA2A - Compounds are tested at 10 uM concentration, plate are incubated at room temperature in the dark for 90 minutes. Reaction are stopped by vacuum filtration onto 0.3% polyethyleneimine soaked filter mats using Filtermate harvester. Scintilation cocktail is then melted onto microwave-dried filters on a hot plate and the radio activity is counted in Microbia counter.

[9] = biological target: T4, Alpha-1D adrenergic receptor (Homo sapiens) (UniProt P25100)
T4 sequence (whole entry): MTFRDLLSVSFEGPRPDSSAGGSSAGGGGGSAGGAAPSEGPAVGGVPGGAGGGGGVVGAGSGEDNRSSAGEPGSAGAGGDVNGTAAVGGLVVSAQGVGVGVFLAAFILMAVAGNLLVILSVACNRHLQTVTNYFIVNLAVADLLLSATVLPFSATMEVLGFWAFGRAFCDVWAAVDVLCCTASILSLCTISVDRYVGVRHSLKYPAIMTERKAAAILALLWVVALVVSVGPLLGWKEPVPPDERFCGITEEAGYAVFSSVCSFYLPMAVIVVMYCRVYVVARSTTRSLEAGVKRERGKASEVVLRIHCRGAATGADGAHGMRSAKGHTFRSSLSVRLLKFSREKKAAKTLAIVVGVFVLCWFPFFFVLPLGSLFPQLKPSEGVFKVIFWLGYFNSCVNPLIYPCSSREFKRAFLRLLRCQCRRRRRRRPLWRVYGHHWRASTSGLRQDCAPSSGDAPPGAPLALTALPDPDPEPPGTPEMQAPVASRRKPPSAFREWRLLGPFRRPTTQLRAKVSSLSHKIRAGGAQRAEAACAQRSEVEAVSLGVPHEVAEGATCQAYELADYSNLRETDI
Description: PDSP Primary Binding target: ADRA1D - Compounds are tested at 10 uM concentration, plate are incubated at room temperature in the dark for 90 minutes. Reaction are stopped by vacuum filtration onto 0.3% polyethyleneimine soaked filter mats using Filtermate harvester. Scintilation cocktail is then melted onto microwave-dried filters on a hot plate and the radio activity is counted in Microbia counter.

[10] = biological target: Histamine H1 receptor (Homo sapiens) (UniProt P35367)
Description: PDSP Primary Binding target: HRH1 - Compounds are tested at 10 uM concentration, plate are incubated at room temperature in the dark for 90 minutes. Reaction are stopped by vacuum filtration onto 0.3% polyethyleneimine soaked filter mats using Filtermate harvester. Scintilation cocktail is then melted onto microwave-dried filters on a hot plate and the radio activity is counted in Microbia counter.

[11] = biological target: T5, Muscarinic acetylcholine receptor M4 (Homo sapiens) (UniProt P08173)
T5 sequence (whole entry): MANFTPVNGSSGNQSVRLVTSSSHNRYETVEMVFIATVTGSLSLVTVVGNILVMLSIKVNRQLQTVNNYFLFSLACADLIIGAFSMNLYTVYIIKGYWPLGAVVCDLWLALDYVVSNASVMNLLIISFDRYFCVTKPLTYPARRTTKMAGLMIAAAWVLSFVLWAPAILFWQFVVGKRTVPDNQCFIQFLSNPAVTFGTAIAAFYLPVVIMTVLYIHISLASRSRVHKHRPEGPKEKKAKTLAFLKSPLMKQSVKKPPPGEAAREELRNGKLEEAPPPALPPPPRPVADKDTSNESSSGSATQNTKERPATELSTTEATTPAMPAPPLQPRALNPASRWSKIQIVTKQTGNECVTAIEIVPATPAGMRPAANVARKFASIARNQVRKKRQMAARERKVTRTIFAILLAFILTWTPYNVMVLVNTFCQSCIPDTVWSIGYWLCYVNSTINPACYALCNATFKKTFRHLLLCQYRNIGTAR
Description: PDSP Primary Binding target: CHRM4 - Compounds are tested at 10 uM concentration, plate are incubated at room temperature in the dark for 90 minutes. Reaction are stopped by vacuum filtration onto 0.3% polyethyleneimine soaked filter mats using Filtermate harvester. Scintilation cocktail is then melted onto microwave-dried filters on a hot plate and the radio activity is counted in Microbia counter.

Chain of 5-hydroxytryptamine receptor 6 (Homo sapiens) (P50406 whole entry): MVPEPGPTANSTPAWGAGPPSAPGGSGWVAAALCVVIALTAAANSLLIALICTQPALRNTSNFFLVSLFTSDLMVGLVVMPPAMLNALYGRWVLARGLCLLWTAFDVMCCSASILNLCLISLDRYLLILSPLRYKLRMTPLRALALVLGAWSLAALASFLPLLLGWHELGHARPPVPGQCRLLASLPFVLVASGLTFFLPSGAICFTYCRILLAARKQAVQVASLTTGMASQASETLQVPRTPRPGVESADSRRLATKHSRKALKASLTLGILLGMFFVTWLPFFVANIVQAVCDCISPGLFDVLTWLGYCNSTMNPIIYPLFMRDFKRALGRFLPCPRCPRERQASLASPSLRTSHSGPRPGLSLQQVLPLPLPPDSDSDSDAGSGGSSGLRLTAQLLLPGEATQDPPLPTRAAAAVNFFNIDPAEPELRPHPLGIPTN
Chain of Histamine H2 receptor (Homo sapiens) (P25021 whole entry): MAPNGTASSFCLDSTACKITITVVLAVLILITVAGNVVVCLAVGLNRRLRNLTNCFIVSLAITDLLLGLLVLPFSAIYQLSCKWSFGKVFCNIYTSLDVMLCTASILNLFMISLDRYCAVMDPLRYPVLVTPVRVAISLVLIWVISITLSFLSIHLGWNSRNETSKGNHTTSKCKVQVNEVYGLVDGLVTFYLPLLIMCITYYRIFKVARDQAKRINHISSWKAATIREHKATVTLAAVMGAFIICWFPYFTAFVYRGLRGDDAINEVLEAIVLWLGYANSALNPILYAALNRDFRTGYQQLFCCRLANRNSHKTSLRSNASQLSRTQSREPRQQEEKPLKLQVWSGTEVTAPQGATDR
Chain of D(1B) dopamine receptor (Homo sapiens) (P21918 whole entry): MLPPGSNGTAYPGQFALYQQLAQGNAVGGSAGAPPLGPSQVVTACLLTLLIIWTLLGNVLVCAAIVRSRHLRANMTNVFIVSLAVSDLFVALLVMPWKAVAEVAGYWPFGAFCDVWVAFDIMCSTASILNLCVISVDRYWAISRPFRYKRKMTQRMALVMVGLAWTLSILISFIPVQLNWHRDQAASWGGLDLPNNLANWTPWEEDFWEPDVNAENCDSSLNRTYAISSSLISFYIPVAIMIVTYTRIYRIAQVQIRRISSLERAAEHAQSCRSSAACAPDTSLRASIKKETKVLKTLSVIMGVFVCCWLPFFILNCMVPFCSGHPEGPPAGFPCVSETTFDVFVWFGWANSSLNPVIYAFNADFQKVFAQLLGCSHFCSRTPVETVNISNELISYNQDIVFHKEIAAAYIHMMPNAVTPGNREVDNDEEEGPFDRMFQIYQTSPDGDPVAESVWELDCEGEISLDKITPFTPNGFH
Chain of Kappa-type opioid receptor (Homo sapiens) (P41145 whole entry): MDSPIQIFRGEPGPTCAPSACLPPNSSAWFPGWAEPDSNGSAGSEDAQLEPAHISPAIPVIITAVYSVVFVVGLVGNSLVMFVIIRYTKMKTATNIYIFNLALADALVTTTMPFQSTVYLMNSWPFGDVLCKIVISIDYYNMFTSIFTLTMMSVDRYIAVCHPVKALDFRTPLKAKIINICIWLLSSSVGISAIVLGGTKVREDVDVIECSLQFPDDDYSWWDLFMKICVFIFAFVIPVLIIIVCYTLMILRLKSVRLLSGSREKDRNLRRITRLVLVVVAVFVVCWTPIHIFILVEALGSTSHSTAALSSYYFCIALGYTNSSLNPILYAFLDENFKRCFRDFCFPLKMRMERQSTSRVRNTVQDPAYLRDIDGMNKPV
Chain of Histamine H1 receptor (Homo sapiens) (P35367 whole entry): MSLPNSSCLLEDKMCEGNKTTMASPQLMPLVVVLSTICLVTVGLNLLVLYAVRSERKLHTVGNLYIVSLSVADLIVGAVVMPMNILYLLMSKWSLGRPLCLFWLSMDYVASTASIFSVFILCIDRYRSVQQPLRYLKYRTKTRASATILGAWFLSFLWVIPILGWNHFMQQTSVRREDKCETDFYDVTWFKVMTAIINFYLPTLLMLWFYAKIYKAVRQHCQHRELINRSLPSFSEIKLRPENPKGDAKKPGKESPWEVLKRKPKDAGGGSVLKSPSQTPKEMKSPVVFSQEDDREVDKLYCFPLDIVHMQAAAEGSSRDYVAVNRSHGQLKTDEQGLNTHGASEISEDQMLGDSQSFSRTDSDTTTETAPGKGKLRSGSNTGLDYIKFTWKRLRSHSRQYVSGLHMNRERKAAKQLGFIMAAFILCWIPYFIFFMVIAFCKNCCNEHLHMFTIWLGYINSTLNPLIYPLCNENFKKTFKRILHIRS
Chain of Beta-3 adrenergic receptor (Homo sapiens) (P13945 whole entry, looked up): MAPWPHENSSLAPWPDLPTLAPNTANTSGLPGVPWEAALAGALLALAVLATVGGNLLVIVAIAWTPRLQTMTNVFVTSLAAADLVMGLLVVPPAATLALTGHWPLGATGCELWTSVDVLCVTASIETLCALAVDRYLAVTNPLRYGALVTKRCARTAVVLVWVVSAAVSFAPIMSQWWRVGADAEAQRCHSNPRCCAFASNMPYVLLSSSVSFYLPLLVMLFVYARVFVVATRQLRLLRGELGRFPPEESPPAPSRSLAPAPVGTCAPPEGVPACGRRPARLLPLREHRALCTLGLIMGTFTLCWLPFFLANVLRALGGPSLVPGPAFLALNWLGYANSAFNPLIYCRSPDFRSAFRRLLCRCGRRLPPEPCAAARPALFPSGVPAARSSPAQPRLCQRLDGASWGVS

| SMILES | inhibition [1] | inhibition [2] | inhibition [3] | inhibition [4] | inhibition [5] | inhibition [6] | inhibition [7] | inhibition [8] | inhibition [9] | inhibition [10] | inhibition [11] |
| --- | --- | --- | --- | --- | --- | --- | --- | --- | --- | --- | --- |
| N#Cc1c(O)nc(SCc2cccc(F)c2F)nc1C1CC1 | -9.08% | 3.53% | 28.4% | 9.18% | 28.1% | 6.35% | – | – | – | – | – |
| CS(=O)(=O)NC[C@H]1CC[C@H](Nc2nc3c(s2)CCSc2ccccc2-3)CC1 | -8.21% | -0.03% | -6.36% | 35% | – | -2.3% | 45.4% | 0.86% | 2.44% | 18.7% | – |
| N#Cc1c[nH]c2c(C(=O)N3CCN(CCc4ccc(F)cc4)CC3)cccc12 | 36.8% | 7.51% | 8.62% | 37.8% | – | 4.27% | 22.4% | -0.21% | -4.02% | 46.1% | – |
| CCCNS(=O)(=O)Nc1ncnc(OCCOc2ncc(Br)cn2)c1-c1ccc(Br)cc1 | 12.1% | 1.8% | -1.25% | 2.99% | -6.56% | – | 42.6% | – | 0.01% | 11.5% | 6.06% |
| COc1ccc(CNC(=O)c2cc(-c3cncc(Cl)c3)cnc2-c2ccccn2)nc1OC | 0.01% | 23.7% | 1.18% | 14.4% | 10.6% | -5.76% | – | – | -7.71% | 17.4% | – |
| Cc1cc(C)cc(-c2cnc3cc(Cl)c(-c4cccc(O)c4)cc3c2OCCCN)c1 | 81.8% | 60.7% | 72.9% | 59% | – | 81.6% | 99.4% | 64.9% | 53.7% | 98.8% | 8.82% |
| C[C@]1(C(=O)N(CCCC(=O)O)Cc2cccc(Cl)c2)CCN1C(=O)c1csc2ccccc12 | -9.59% | -5.78% | -8.24% | 3.68% | – | 19.3% | -0.98% | 10.9% | 3.17% | 15.4% | 27.1% |
| Cc1ccc2c(c1)c1c(n2CCc2ccc(C)nc2)CCN(C)C1 | 85% | 20% | 32.6% | 90.6% | – | 96.5% | 0.23% | 69.7% | 84.6% | 95.1% | 5.78% |
| COc1cccc(-c2c(C)n(Cc3c(F)cccc3C(F)(F)F)c(=O)n(C[C@H](NCCCC(=O)O)c3ccccc3)c2=O)c1F | – | 52.1% | 0.96% | -1.04% | 3.22% | – | 44.5% | – | -7.43% | 9.07% | 4.32% |
| Cc1c(F)cccc1NC(=O)Nc1ccc(Cl)c(S(=O)(=O)[C@H]2CCCNC2)c1O | – | -8.19% | 3.67% | -2.87% | – | 18.3% | 17.8% | – | – | 25.6% | -3.99% |
| O=C(O)COc1cccc(CN(Cc2ccc(-n3cccn3)cc2)S(=O)(=O)c2cccnc2)c1 | -5.67% | -1.11% | 2.14% | -0.81% | – | 3.71% | – | -8.07% | – | 1.83% | -2.13% |
| CN1CCC(C(=O)c2cccc(NC(=O)c3c(F)cc(F)cc3F)n2)CC1 | 8.88% | 69.2% | 73.7% | 11.4% | -1.5% | – | – | 19.9% | 6.55% | 16.4% | 27% |
| N[C@H](C(=O)O)c1ccc(C(=O)O)c(C(=O)O)c1 | -0.2% | 4.93% | – | 4.51% | 45% | -1.13% | 18.2% | – | 10.3% | 11.7% | – |
| Cc1nc(-c2ccc(C(F)(F)F)cc2)sc1COc1ccc([C@H](CC(=O)O)c2ccon2)cc1 | 69% | 6.61% | -0.99% | 20.3% | 25.2% | 15.9% | – | – | -8.39% | – | 4.4% |
| NC(=O)[C@@H]1CCCN1C(=O)[C@H](Cc1c[nH]cn1)NC(=O)[C@@H]1CCC(=O)N1 | -3.89% | 6.58% | 0.19% | 10.6% | -6.24% | – | – | 12.4% | -8.73% | 9.67% | -2.83% |
| FC(F)(F)c1c(N2CCC(c3ccccc3)CC2)ccn2c(CC3CC3)nnc12 | – | 10.5% | -0.45% | -9.81% | 7.85% | 12.3% | 4.3% | – | -3.82% | 33% | – |
| O=C(O)C1CN(Cc2ccc(-c3nc4cc(Cc5ccccc5F)ccc4s3)c(F)c2)C1 | – | 0.93% | -0.27% | 8.45% | -8.59% | 1.06% | -2.08% | – | – | 37.5% | – |
| CN(C)S(=O)(=O)c1ccc(NC(=S)N2CCC(C(O)(c3ccccc3)c3ccccc3)CC2)cc1 | -3.51% | 12.3% | 5.17% | 8.14% | – | 18.6% | 57.7% | -9.2% | – | 6.41% | -6.86% |
